Experimental data published in patent US10028992B2, “Methods of treating muscular dystrophy” (BOARD OF REGENTS OF THE NEVADA SYSTEM OF HIGHER EDUCATION …, priority 2012, dated 2018).
Where two headings read alike, the source gives them in different places.

Tested on: α7 integrin promoter
Assay: muscle cell-based assay: α7βgal+/− myoblasts/myotubes, LacZ reporter, β-galactosidase cleavage of FDG
Design: species or system mouse; Results in α7+/− β-galactosidase assay: scale not given here
Settings: for AC50 / EC50: Mus musculus; for AC50: log of AC50, given with negative sign, unit of AC50 not given, read-out: Fit Log AC50 (converted); for Results in a α7+/− β-galactosidase assay, Myotubes, 0.5 uM: compound at 0.5 uM; for Results in a α7+/− β-galactosidase assay, Myotubes, 1 uM: compound at 1 uM; for Results in a α7+/− β-galactosidase assay, Myotubes, 5 uM: compound at 5 uM; for Results in a α7+/− β-galactosidase assay, Myotubes, 10 uM: compound at 10 uM; for Results in a α7+/− β-galactosidase assay, Myotubes, 20 uM: compound at 20 uM; for Results in a α7+/− β-galactosidase assay, Myotubes, 40 uM: compound at 40 uM; for EC50: read-out: Fit LogAC50 (converted)
Outline: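 Fluorescein generated from FDG by β-galactosidase reports α7 integrin promoter activity in differentiated myoblasts from α7+/− LacZ knock-in pups. Screening hits then went to dose-response, western blotting and a myostatin counterscreen.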

[1] = Table 12, fitted activity at zero concentration
[2] = Table 12 Compound data, concentration-response curve fit
[3] = given as log AC50 (negative values)
[4] = curve class number, key not given
[5] = curve fit, activity at zero concentration

COc1ccc(C(=O)ONC(=N)c2cccc(C)c2)cc1OC [Compound 78]
AC50 (Table 12): 10 µM
Fit HillSlope (Table 12, curve fit): 1.7137
Fit Zero Activity [%] [1]: 9.6566%
Fit Curve Class (Table 12, key not given): 2.1
Score [2]: 44

Cn1c(-c2ccccc2)cc2ccccc21 [drawing 627]
Results in α7+/− β-galactosidase assay (Myoblasts, 0.5 uM): 0.02349
Results in α7+/− β-galactosidase assay (Myoblasts, 1 uM): −0.0996
Results in α7+/− β-galactosidase assay (Myoblasts, 5 uM): −0.05693
Results in α7+/− β-galactosidase assay (Myoblasts, 10 uM): −0.02616
Results in α7+/− β-galactosidase assay (Myoblasts, 20 uM): −0.2661
Results in α7+/− β-galactosidase assay (Myoblasts, 40 uM): −0.4026

OC(c1nc2cc(F)ccc2[nH]1)C(O)c1nc2cc(F)ccc2[nH]1 (stereo not drawn) [drawing 573]
Results in α7+/− β-galactosidase assay (Myoblasts, 0.5 uM): 0.08093
Results in α7+/− β-galactosidase assay (Myoblasts, 1 uM): 0.2145
Results in α7+/− β-galactosidase assay (Myoblasts, 5 uM): −0.08597
Results in α7+/− β-galactosidase assay (Myoblasts, 10 uM): −0.1055
Results in α7+/− β-galactosidase assay (Myoblasts, 20 uM): 0.001076
Results in α7+/− β-galactosidase assay (Myoblasts, 40 uM): −0.1048

COC(=O)Cc1c(O)ccn(Cc2ccc3c(c2)OCO3)c1=O [Compound 80]
AC50 (Table 12): 10 µM
Fit HillSlope (Table 12, curve fit): 1.4163
Fit Zero Activity [%] [1]: −6.484%
Fit Curve Class (Table 12, key not given): 2.1
Score [2]: 44

CC(=O)Nc1ccc(NC(=O)c2cc(=O)c3cc(C)cc(C)c3o2)cc1 [drawing 596]
Results in α7+/− β-galactosidase assay (Myoblasts, 0.5 uM): −0.1173
Results in α7+/− β-galactosidase assay (Myoblasts, 1 uM): −0.07551
Results in α7+/− β-galactosidase assay (Myoblasts, 5 uM): −0.4622
Results in α7+/− β-galactosidase assay (Myoblasts, 10 uM): 0.1321
Results in α7+/− β-galactosidase assay (Myoblasts, 20 uM): −0.5173
Results in α7+/− β-galactosidase assay (Myoblasts, 40 uM): −0.5206

CCN(CC)CCNC(=O)c1c(C)[nH]c(CC2C(=O)Nc3ccc(F)cc32)c1C (stereo not drawn) [drawing 515]
Results in α7+/− β-galactosidase assay (Myotubes, 0.5 uM): −0.04962
Results in α7+/− β-galactosidase assay (Myotubes, 1 uM): −0.02655
Results in α7+/− β-galactosidase assay (Myotubes, 5 uM): −0.4387
Results in α7+/− β-galactosidase assay (Myotubes, 10 uM): −1.86
Results in α7+/− β-galactosidase assay (Myotubes, 20 uM): −0.9178
Results in α7+/− β-galactosidase assay (Myotubes, 40 uM): 0.9191

CCN(CC)C(=O)c1sc2nc(-c3ccc(OC)cc3)cn2c1C [drawing 620]
Results in α7+/− β-galactosidase assay (Myoblasts, 0.5 uM): −0.00349
Results in α7+/− β-galactosidase assay (Myoblasts, 1 uM): −0.01981
Results in α7+/− β-galactosidase assay (Myoblasts, 5 uM): −0.06604
Results in α7+/− β-galactosidase assay (Myoblasts, 10 uM): −0.2175
Results in α7+/− β-galactosidase assay (Myoblasts, 20 uM): −0.4369
Results in α7+/− β-galactosidase assay (Myoblasts, 40 uM): −0.6089

CCc1c(C)sc(NC(=O)c2ccco2)c1C#N [drawing 527]
Results in α7+/− β-galactosidase assay (Myoblasts, 0.5 uM): 0.01962
Results in α7+/− β-galactosidase assay (Myoblasts, 1 uM): 0.03303
Results in α7+/− β-galactosidase assay (Myoblasts, 5 uM): −0.06162
Results in α7+/− β-galactosidase assay (Myoblasts, 10 uM): −0.02233
Results in α7+/− β-galactosidase assay (Myoblasts, 20 uM): −0.1898
Results in α7+/− β-galactosidase assay (Myoblasts, 40 uM): −0.1237

CC1(C)Cc2c(c(N3CCOCC3)nc3sc(C(=O)Nc4ccccc4)c(N)c23)CO1 [drawing 330]
Results in a α7+/− β-galactosidase assay, Myotubes, 0.5 uM (Myotubes): 0.2661
Results in a α7+/− β-galactosidase assay, Myotubes, 1 uM (Myotubes): 0.1201
Results in a α7+/− β-galactosidase assay, Myotubes, 5 uM (Myotubes): −0.3453
Results in a α7+/− β-galactosidase assay, Myotubes, 10 uM (Myotubes): −0.3697
Results in a α7+/− β-galactosidase assay, Myotubes, 20 uM (Myotubes): 0.0827
Results in a α7+/− β-galactosidase assay, Myotubes, 40 uM (Myotubes): −0.164

O=C(Cn1nc(-c2ccc(Cl)cc2)ccc1=O)N1CCC2(CC1)OCCO2 [Compound 221]
Fit Curve Class: 2.2
Fit HillSlope: 4.095
Fit Zero Activity [%]: 7%
Score: 41
EC50: 11.2 µM

Cc1ccccc1/C=C1\C(=O)Nc2ccc(F)cc21 [drawing 456]
Results in a α7+/− β-galactosidase assay, Myotubes, 0.5 uM (Myotubes): 0.008769
Results in a α7+/− β-galactosidase assay, Myotubes, 1 uM (Myotubes): −0.01895
Results in a α7+/− β-galactosidase assay, Myotubes, 5 uM (Myotubes): −0.02208
Results in a α7+/− β-galactosidase assay, Myotubes, 10 uM (Myotubes): 0.1345
Results in a α7+/− β-galactosidase assay, Myotubes, 20 uM (Myotubes): −0.1202
Results in a α7+/− β-galactosidase assay, Myotubes, 40 uM (Myotubes): 0.009496

CCCS(=O)(=O)c1nc(S(=O)(=O)c2ccc(C)cc2)c(N2CCCC2)s1 [drawing 364]
Results in a α7+/− β-galactosidase assay, Myotubes, 0.5 uM (Myotubes): 0.01021
Results in a α7+/− β-galactosidase assay, Myotubes, 1 uM (Myotubes): 0.05992
Results in a α7+/− β-galactosidase assay, Myotubes, 5 uM (Myotubes): −0.01197
Results in a α7+/− β-galactosidase assay, Myotubes, 10 uM (Myotubes): −0.0108
Results in a α7+/− β-galactosidase assay, Myotubes, 20 uM (Myotubes): −0.2345
Results in a α7+/− β-galactosidase assay, Myotubes, 40 uM (Myotubes): −0.3321

COc1ccccc1NS(=O)(=O)c1cc(NC(=O)c2ccc(Cl)nc2)ccc1N1CCCC1 [drawing 358]
Results in a α7+/− β-galactosidase assay, Myotubes, 0.5 uM (Myotubes): 0.1418
Results in a α7+/− β-galactosidase assay, Myotubes, 1 uM (Myotubes): 0.2243
Results in a α7+/− β-galactosidase assay, Myotubes, 5 uM (Myotubes): 0.0609
Results in a α7+/− β-galactosidase assay, Myotubes, 10 uM (Myotubes): 0.2352
Results in a α7+/− β-galactosidase assay, Myotubes, 20 uM (Myotubes): −0.07572
Results in a α7+/− β-galactosidase assay, Myotubes, 40 uM (Myotubes): −0.1492

CN(C)/C(S)=N/c1cccc(C(F)(F)F)c1 [Compound 172]
EC50 [3]: 10 µM
Score (Table 12 compound data): 42
Fit Curve Class [4]: 2.2
Fit HillSlope (curve fit): 2.3332
Fit Zero Activity [%] [5]: 8%

CCc1ccc(Sc2cc(C(=O)NCCN3CCOCC3)c3ccccc3n2)cc1 [Compound 214]
EC50 [3]: 11.2 µM
Score (Table 12 compound data): 42
Fit Curve Class [4]: 2.1
Fit HillSlope (curve fit): 2.0937
Fit Zero Activity [%] [5]: 13.9034%

CCCN1C2CCCC1CC(NC(=O)c1cccc([N+](=O)[O-])c1)C2 (stereo not drawn) [Compound 164]
Score (Table 12 compound data): 42
Fit Curve Class [4]: 2.1
Fit HillSlope (curve fit): 4.5045
Fit Infinite Activity [%] (curve fit, activity at infinite concentration): 91.825%
Fit Zero Activity [%] [5]: 0.8371%
Fit LogAC50 [3]: −5

Cc1cc(C)nc(NC(=O)c2ccc(Cl)cc2Cl)n1 [Compound 198]
EC50 [3]: 10 µM
Score (Table 12 compound data): 42
Fit Curve Class [4]: 2.2
Fit HillSlope (curve fit): 4.9549
Fit Zero Activity [%] [5]: 1.0914%

Cc1ccc(N2C(=O)C3NN=C(C(=O)OCc4ccccc4)C3C2=O)cc1 (stereo not drawn) [drawing 600]
Results in α7+/− β-galactosidase assay (Myoblasts, 0.5 uM): 0.05483
Results in α7+/− β-galactosidase assay (Myoblasts, 1 uM): −0.02931
Results in α7+/− β-galactosidase assay (Myoblasts, 5 uM): −0.09981
Results in α7+/− β-galactosidase assay (Myoblasts, 10 uM): −0.01836
Results in α7+/− β-galactosidase assay (Myoblasts, 20 uM): 0.1359
Results in α7+/− β-galactosidase assay (Myoblasts, 40 uM): −0.03893

COc1cc(NC(=O)OCc2ccccc2)c2ncccc2c1 [drawing 557]
Results in α7+/− β-galactosidase assay (Myoblasts, 0.5 uM): 0.0156
Results in α7+/− β-galactosidase assay (Myoblasts, 1 uM): −0.08284
Results in α7+/− β-galactosidase assay (Myoblasts, 5 uM): 0.01997
Results in α7+/− β-galactosidase assay (Myoblasts, 10 uM): 0.2347
Results in α7+/− β-galactosidase assay (Myoblasts, 20 uM): −0.06526
Results in α7+/− β-galactosidase assay (Myoblasts, 40 uM): −0.1686

CCOc1ccc(Br)cc1S(=O)(=O)Nc1ccc(C(=O)Nc2ccccc2OC)cc1 [drawing 659]
Results in α7+/− β-galactosidase assay (Myoblasts, 0.5 uM): −0.08436
Results in α7+/− β-galactosidase assay (Myoblasts, 1 uM): 0.06885
Results in α7+/− β-galactosidase assay (Myoblasts, 5 uM): 0.1299
Results in α7+/− β-galactosidase assay (Myoblasts, 10 uM): −0.03674
Results in α7+/− β-galactosidase assay (Myoblasts, 20 uM): −0.08958
Results in α7+/− β-galactosidase assay (Myoblasts, 40 uM): −0.05546

O=C(c1ccccc1)N1CCN(S(=O)(=O)c2cccs2)CC1 [drawing 549]
Results in α7+/− β-galactosidase assay (Myoblasts, 0.5 uM): 0.05147
Results in α7+/− β-galactosidase assay (Myoblasts, 1 uM): 0.1507
Results in α7+/− β-galactosidase assay (Myoblasts, 5 uM): 0.1856
Results in α7+/− β-galactosidase assay (Myoblasts, 10 uM): −0.01279
Results in α7+/− β-galactosidase assay (Myoblasts, 20 uM): 0.05474
Results in α7+/− β-galactosidase assay (Myoblasts, 40 uM): 0.09083

N#C/C(=C/c1ccc(N2CCOCC2)o1)C(=O)Nc1ccccc1 [drawing 645]
Results in α7+/− β-galactosidase assay (Myoblasts, 0.5 uM): 0.06835
Results in α7+/− β-galactosidase assay (Myoblasts, 1 uM): 0.1707
Results in α7+/− β-galactosidase assay (Myoblasts, 5 uM): 0.1316
Results in α7+/− β-galactosidase assay (Myoblasts, 10 uM): 0.05082
Results in α7+/− β-galactosidase assay (Myoblasts, 20 uM): 0.07006
Results in α7+/− β-galactosidase assay (Myoblasts, 40 uM): 0.03748
